Counter-ions that a name gives are not always drawn. Like-named read-outs stand apart in the source and are kept apart here.
Test system: Acinetobacter baumannii ATCC 17978
Assay: Antimicrobial susceptibility testing: 90% growth inhibitory concentration (IC90) determination
Assay type: cell-based
Settings: 90% growth inhibitory concentration, Acinetobacter baumannii ATCC17978, Iso-Sensitest broth, OD 600 nm over 16h, read-out: ATCC17978 IC90
In short: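 Growth of the Acinetobacter baumannii strain was followed by optical density at 600 nm every 20 minutes for 16h at 35±2° C. Inoculum was ~5×10^(5) CFU/ml in Iso-Sensitest medium, with twofold compound dilutions (e.g. 50 to 0.097 μM final). The 90% inhibitory concentration was derived in log-phase growth.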

[1] = Acinetobacter baumannii, ATCC17978, 16 h

| SMILES | IC90 [1] | IC90 |
| --- | --- | --- |
| CCc1cc(Nc2nccn3c(-c4ccc(OC(F)F)c(F)c4F)cnc23)ccc1C(=O)NCCC(=O)NCCN(C)C [Example 325, 4-[[3-[4-(difluoromethoxy)-2,3-difluorophenyl]imidazo[1,2-a]pyrazin-8-yl]amino]-N-[3-[2-(dimethylamino)ethylamino]-3-oxopropyl]-2-ethylbenzamide] | 150 nM |  |
| CCc1cc(Nc2nccn3c(-c4ccc(OC)c(F)c4F)cnc23)ccc1C(=O)NC(C)(C)CNC(=O)[C@@H](N)CCCCN [Example 326, N-[1-[[(2S)-2,6-diaminohexanoyl]amino]-2-methylpropan-2-yl]-4-[[3-(2,3-difluoro-4-methoxyphenyl)imidazo[1,2-a]pyrazin-8-yl]amino]-2-ethylbenzamide] | 190 nM |  |
| COc1ccc(-c2cnc3c(Nc4ccc5c(c4)CCN(CCCO)C5=O)nccn23)c(F)c1F [Example 327, 6-[[3-(2,3-difluoro-4-methoxyphenyl)imidazo[1,2-a]pyrazin-8-yl]amino]-2-(3-hydroxypropyl)-3,4-dihydroisoquinolin-1-one] | 290 nM |  |
| CCc1cc(Nc2nccn3c(-c4ccc(OC(F)F)c(F)c4F)cnc23)ccc1C(=O)NCCCO[C@H]1O[C@H](CO)[C@@H](O)[C@H](O)[C@H]1O [Example 328, 4-[[3-[4-(difluoromethoxy)-2,3-difluorophenyl]imidazo[1,2-a]pyrazin-8-yl]amino]-2-ethyl-N-[3-[(2S,3R,4S,5S,6R)-3,4,5-trihydroxy-6-(hydroxymethyl)oxan-2-yl]oxypropyl]benzamide] | 300 nM |  |
| C=CCNC(=O)c1ccc(Nc2nccn3c(-c4ccc(OC)c(F)c4F)cnc23)cc1CC [Example 329, 4-[[3-(2,3-difluoro-4-methoxyphenyl)imidazo[1,2-a]pyrazin-8-yl]amino]-2-ethyl-N-prop-2-enylbenzamide] | 140 nM |  |
| CCc1cc(Nc2nccn3c(-c4ccc(OCC#N)c(F)c4Cl)cnc23)ccc1C(=O)NCCNC(=O)[C@@H](N)CCCNC(=N)N [Example 330, N-[2-[[(2S)-2-amino-5-carbamimidamidopentanoyl]amino]ethyl]-4-[[3-[2-chloro-4-(cyanomethoxy)-3-fluorophenyl]imidazo[1,2-a]pyrazin-8-yl]amino]-2-ethylbenzamide;formic acid] | 110 nM |  |
| CCc1cc(Nc2nccn3c(-c4ccc(OC)c(F)c4F)cnc23)ccc1C(=O)N[C@H](C)CNC(=O)[C@@H](N)CCCNC(=N)N [Example 331, N-[(2R)-1-[[(2S)-2-amino-5-carbamimidamidopentanoyl]amino]propan-2-yl]-4-[[3-(2,3-difluoro-4-methoxyphenyl)imidazo[1,2-a]pyrazin-8-yl]amino]-2-ethylbenzamide;formic acid] | 300 nM |  |
| CCc1cc(Nc2nccn3c(-c4ccc(OC)c(F)c4F)cnc23)ccc1C(=O)NCCNC(=O)[C@@H](N)CCCNC(N)=O [Example 332, N-[2-[[(2S)-2-amino-5-(carbamoylamino)pentanoyl]amino]ethyl]-4-[[3-(2,3-difluoro-4-methoxyphenyl)imidazo[1,2-a]pyrazin-8-yl]amino]-2-ethylbenzamide] | 320 nM |  |
| CCc1cc(Nc2nccn3c(-c4ccc(OC(F)F)c(F)c4F)cnc23)ccc1C(=O)NCCNC(=O)[C@@H](N)CCCNC(=N)N [Example 333, N-[2-[[(2S)-2-amino-5-carbamimidamidopentanoyl]amino]ethyl]-4-[[3-[4-(difluoromethoxy)-2,3-difluorophenyl]imidazo[1,2-a]pyrazin-8-yl]amino]-2-ethylbenzamide;formic acid] | 340 nM |  |
| CCc1cc(Nc2nccn3c(-c4ccc(OC)c(F)c4F)cnc23)ccc1C(=O)NCC(O)CN (stereo not shown) [Example 334, N-(3-amino-2-hydroxypropyl)-4-[[3-(2,3-difluoro-4-methoxyphenyl)imidazo[1,2-a]pyrazin-8-yl]amino]-2-ethylbenzamide] | 350 nM |  |
| CCc1cc(Nc2nccn3c(-c4ccc(OC)c(F)c4F)cnc23)ccc1C(=O)NCCNC(=O)NCCCN [Example 335, N-[2-(3-aminopropylcarbamoylamino)ethyl]-4-[[3-(2,3-difluoro-4-methoxyphenyl)imidazo[1,2-a]pyrazin-8-yl]amino]-2-ethylbenzamide] | 430 nM |  |
| CCc1cc(Nc2nccn3c(-c4ccc(OC)c(F)c4F)cnc23)ccc1C(=O)NCC[C@H](C)NC(=O)[C@@H](N)CCCNC(=N)N [Example 336, N-[(3S)-3-[[(2S)-2-amino-5-carbamimidamidopentanoyl]amino]butyl]-4-[[3-(2,3-difluoro-4-methoxyphenyl)imidazo[1,2-a]pyrazin-8-yl]amino]-2-ethylbenzamide; hydrochloride] | 480 nM |  |
| COc1ccc(-c2cnc3c(Nc4ccc(C(=O)NCCNC(=O)CC[C@@H]5NC5=O)c(C)c4)nccn23)c(F)c1F [Example 337, 4-[[3-(2,3-difluoro-4-methoxyphenyl)imidazo[1,2-a]pyrazin-8-yl]amino]-2-methyl-N-[2-[3-[(2S)-3-oxoaziridin-2-yl]propanoylamino]ethyl]benz-amide] | 520 nM |  |
| COc1ccc(-c2cnc3c(Nc4ccc(C(=O)NCCNC(=O)CC[C@H]5C(=O)N5C)c(C)c4)nccn23)c(F)c1F [Example 338, 4-[[3-(2,3-difluoro-4-methoxyphenyl)imidazo[1,2-a]pyrazin-8-yl]amino]-2-methyl-N-[2-[3-[(2S)-1-methyl-3-oxoaziridin-2-yl]propanoylamino]ethyl]benz-amide] | 540 nM |  |
| CCc1cc(Nc2nccn3c(-c4ccc(OC)c(F)c4F)cnc23)ccc1C(=O)NCCNC(=O)NCCN [Example 339, N-[2-(2-aminoethylcarbamoylamino)ethyl]-4-[[3-(2,3-difluoro-4-methoxyphenyl)imidazo[1,2-a]pyrazin-8-yl]amino]-2-ethylbenzamide] | 560 nM |  |
| CCc1cc(Nc2nccn3c(-c4ccc(OC)c(F)c4F)cnc23)ccc1C(=O)NCC[C@@H](C)NC(=O)[C@@H](N)CCCNC(=N)N [Example 340, N-[(3R)-3-[[(2S)-2-amino-5-carbamimidamidopentanoyl]amino]butyl]-4-[[3-(2,3-difluoro-4-methoxyphenyl)imidazo[1,2-a]pyrazin-8-yl]amino]-2-ethylbenzamide; hydrochloride] | 590 nM |  |
| CCc1cc(Nc2nccn3c(-c4ccc(Cl)c(F)c4F)cnc23)ccc1C(=O)NCCNC(=O)[C@@H](N)CCCNC(=N)N [Example 341, N-[2-[[(2S)-2-amino-5-carbamimidamidopentanoyl]amino]ethyl]-4-[[3-(4-chloro-2,3-difluorophenyl)imidazo[1,2-a]pyrazin-8-yl]amino]-2-ethylbenzamide] | 650 nM |  |
| CCc1cc(Nc2nccn3c(-c4ccc(OC)c(F)c4F)cnc23)ccc1C(=O)N[C@@H](C)CNC(=O)[C@@H](N)CCCNC(=N)N [Example 342, N-[(2S)-1-[[(2S)-2-amino-5-carbamimidamidopentanoyl]amino]propan-2-yl]-4-[[3-(2,3-difluoro-4-methoxyphenyl)imidazo[1,2-a]pyrazin-8-yl]amino]-2-ethylbenzamide; formic acid] | 730 nM |  |
| CCc1cc(Nc2nccn3c(-c4ccc(OC)c(F)c4F)cnc23)ccc1C(=O)NCCCNC(=O)[C@@H](N)CCCNC(=N)N [Example 343, N-[3-[[(2S)-2-amino-5-carbamimidamidopentanoyl]amino]propyl]-4-[[3-(2,3-difluoro-4-methoxyphenyl)imidazo[1,2-a]pyrazin-8-yl]amino]-2-ethylbenzamide;2,2,2-trifluoroacetic acid] |  | 750 nM |
| CCc1cc(Nc2nccn3c(-c4ccc(OC)c(F)c4F)cnc23)ccc1C(=O)NCCCC[C@H](N)C(=O)O [Example 344, (2S)-2-amino-6-[[4-[[3-(2,3-difluoro-4-methoxyphenyl)imidazo[1,2-a]pyrazin-8-yl]amino]-2-ethylbenzoyl]amino]hexanoic acid;2,2,2-trifluoroacetic acid] | 800 nM |  |
| Cc1cc(Nc2nccn3c(-c4ccc(OC(F)F)cc4)cnc23)ccc1C(=O)NCCNC(=O)N1CCNCC1 [Example 345, N-[2-[[4-[[3-[4-(difluoromethoxy)phenyl]im-idazo[1,2-a]pyrazin-8-yl]amino]-2-methylbenzoyl]amino]ethyl] piperazine-1-carboxamide] | 900 nM |  |
| CCc1cc(Nc2nccn3c(-c4ccc(Cl)cc4Cl)cnc23)ccc1C(=O)NCCNC(=O)[C@@H](N)CCCNC(=N)N [Example 346, N-[2-[[(2S)-2-amino-5-carbamimidamidopentanoyl]amino]ethyl]-4-[[3-(2,4-dichlorophenyl)imidazo[1,2-a]pyrazin-8-yl]amino]-2-ethylbenzamide;hydrochloride] | 980 nM |  |
| CCc1cc(Nc2nccn3c(-c4ccc(OC)c(F)c4F)cnc23)ccc1C(=O)NCCN1CCC[C@H](N)C1=O [Example 347, N-[2-[(3S)-3-amino-2-oxopiperidin-1-yl]ethyl]-4-[[3-(2,3-difluoro-4-methoxyphenyl)imidazo[1,2-a]pyrazin-8-yl]amino]-2-ethylbenzamide] | 1100 nM |  |
| COc1ccc(-c2cnc3c(Nc4ccc(C(=O)NCCNC(=O)N5CCN[C@H](C(=O)O)C5)c(C)c4)nccn23)c(F)c1F [Example 348, (2S)-4-[2-[[4-[[3-(2,3-difluoro-4-methoxyphenyl)imidazo[1,2-a]pyrazin-8-yl]amino]-2-methylbenzoyl]amino]ethyl-carbamoyl]piperazine-2-carboxylic acid;formic acid] | 1100 nM |  |
| COc1ccc(-c2cnc3c(Nc4ccc(C(=O)NCCCC[C@H](N)C(=O)O)c(C)c4)nccn23)c(F)c1F [Example 349, (2S)-2-amino-6-[[4-[[3-(2,3-difluoro-4-methoxyphenyl)imidazo[1,2-a]pyrazin-8-yl]amino]-2-methylbenzoyl]amino]hexa-noic acid;2,2,2-trifluoroacetic acid] | 1100 nM |  |
